Assay results taken from patent publication US10683272B2 (THE JOHNS HOPKINS UNIVERSITY, priority 2014, dated 2020).

Experiment: baboon PET imaging and pharmacokinetics
Format: in vivo, Papio anubis (baboon)
Text: A male Papio anubis (8 y, 27.1 kg) was used to study the biodistribution of ^86Y-6. The baboon was positioned supine during image acquisition. For attenuation correction a low-dose CT image was acquired immediately before the first and last PET images. PET and CT images were co-registered across time points using a Hermes workstation (Hermes Medical Solutions, Greenville, S.C.). Fourteen source organ contours were delineated on the CT with the aid of fused PET/CT images. Decay-corrected mean activity concentrations (Bq/g) were extracted for each source organ from the PET images. Contours were drawn on the PET images of the kidneys, renal cortices, and prostate. The decay-corrected total activity per organ quantified within the PET images had nearly one-to-one correspondence with the administered radioactivity for the first six time points (1 h or less), which confirmed that the administered radioactivity was fully accounted for on the PET images, after which the total amount was less than the administered amount due to voiding. The total amount of radioactivity quantified in each of the PET images was used to obtain the whole-body retention kinetics.
Nine static PET images were acquired at 5, 10, 15, 20, 35 min, 1, 2, 3.5 and 23 h after intravenous administration of 80.7 MBq (2.2 mCi) of ^86Y-6 as a bolus. Images were acquired in 2D mode on a Discovery Rx VCT scanner (GE Healthcare).
For each time-point, the activity concentration (in Bq/cm^3) was measured in each of the 14 delineated organs and multiplied by the organ volume to obtain the total activity per time point per organ. The measured values were then decay-corrected and divided by the baboon organ mass, determined by the CT density and volume from the drawn contours, and the injected radioactivity to obtain the fraction of initial radioactivity per gram (FIA/g) for each time point and each organ. The baboon FIA/g values were then converted to human FIA (per organ) using the following equation (Schwartz et al., 2011; Woodard et al., 1975): […]
That approach assumes that the concentration of activity in a particular tissue relative to the overall concentration in the whole body is preserved across species (i.e., organ concentration/total body concentration is the same for baboon and man). The resulting human FIA values were plotted as a function of time (nine data points) for each organ and fit to a bi-exponential expression: FIA(t)=A1.e^−(λ1^bio^.t)+A2.e^−(Δ2^bio^.t) (2)

[1] = bi-exponential fit, listed as [^86Y]6
[2] = whole-body retention kinetics fit

O=C([O-])CN1CCN(CC(=O)[O-])CCN(CC(=O)[O-])C(Cc2ccc(NC(=S)NCCCCNC(=O)CCCCCCC(=O)NCCCC[C@H](NC(=O)N[C@@H](CCC(=O)O)C(=O)O)C(=O)O)cc2)CN(CC(=O)[O-])CC1.[86Y+3] (stereo partly drawn) [^86Y-6]
percent of kidney radioactivity cleared in the rapid phase (baboon): Sixty-eight
percent of renal cortex radioactivity cleared in the rapid phase (baboon): 66%
highest uptake in kidneys (baboon, about 25 min post-injection): 8 % ID/g
Brain, biological half-life of A1 (bi-exponential fit): 0.71 h
Brain, biological half-life of A2 (bi-exponential fit): 8.71 h
Brain, fitted parameter A1 (bi-exponential fit): 0.53 % ID
Brain, fitted parameter A2 (bi-exponential fit): 0.11 % ID
Heart, biological half-life of A1 (bi-exponential fit): 0.29 h
Heart, biological half-life of A2 (bi-exponential fit): 6.49 h
Heart, fitted parameter A1 (bi-exponential fit): 1.55 % ID
Heart, fitted parameter A2 (bi-exponential fit): 0.29 % ID
Kidneys, biological half-life of A1 (bi-exponential fit): 0.84 h
Kidneys, biological half-life of A2 (bi-exponential fit): 16.6 h
Kidneys, fitted parameter A1 (bi-exponential fit): 6.36 % ID
Kidneys, fitted parameter A2 (bi-exponential fit): 2.98 % ID
Large intestine, biological half-life of A1 (bi-exponential fit): 0.25 h
Large intestine, biological half-life of A2 (bi-exponential fit): 5.97 h
Large intestine, fitted parameter A1 (bi-exponential fit): 0.45 % ID
Large intestine, fitted parameter A2 (bi-exponential fit): 0.30 % ID
Liver, biological half-life of A1 (bi-exponential fit): 0.38 h
Liver, biological half-life of A2 (bi-exponential fit): 7.71 h
Liver, fitted parameter A1 (bi-exponential fit): 4.77 % ID
Liver, fitted parameter A2 (bi-exponential fit): 1.52 % ID
Lungs, biological half-life of A1 (bi-exponential fit): 0.42 h
Lungs, biological half-life of A2 (bi-exponential fit): 6.29 h
Lungs, fitted parameter A1 (bi-exponential fit): 2.78 % ID
Lungs, fitted parameter A2 (bi-exponential fit): 1.27 % ID
Muscle, biological half-life of A1 (bi-exponential fit): 1.98 h
Muscle, biological half-life of A2 (bi-exponential fit): 69.31 h
Muscle, fitted parameter A1 (bi-exponential fit): 14.98 % ID
Muscle, fitted parameter A2 (bi-exponential fit): 0.56 % ID
Pancreas, biological half-life of A1 (bi-exponential fit): 0.66 h
Pancreas, biological half-life of A2 (bi-exponential fit): 10.60 h
Pancreas, fitted parameter A1 (bi-exponential fit): 0.24 % ID
Pancreas, fitted parameter A2 (bi-exponential fit): 0.05 % ID
Prostate, biological half-life of A1 (bi-exponential fit): 0.67 h
Prostate, biological half-life of A2 (bi-exponential fit): 5.58 h
Prostate, fitted parameter A1 (bi-exponential fit): 0.02 % ID
Prostate, fitted parameter A2 (bi-exponential fit): 0.02 % ID
Renal cortex, biological half-life of A1 (bi-exponential fit): 1.1 h
Renal cortex, biological half-life of A2 (bi-exponential fit): about 19 h
Renal cortex, fitted parameter A1 (bi-exponential fit): 4.23 % ID
Renal cortex, fitted parameter A2 (bi-exponential fit): 2.16 % ID
Salivary glands, biological half-life of A1 (bi-exponential fit): 1.56 h
Salivary glands, biological half-life of A2 (bi-exponential fit): 4.47 h
Salivary glands, fitted parameter A1 (bi-exponential fit): 0.30 % ID
Salivary glands, fitted parameter A2 (bi-exponential fit): 0.08 % ID
Small intestine, biological half-life of A1 (bi-exponential fit): 0.26 h
Small intestine, biological half-life of A2 (bi-exponential fit): 10.17 h
Small intestine, fitted parameter A1 (bi-exponential fit): 0.24 % ID
Small intestine, fitted parameter A2 (bi-exponential fit): 0.10 % ID
Spleen, biological half-life of A1 (bi-exponential fit): 1.49 h
Spleen, biological half-life of A2 (bi-exponential fit): 18.74 h
Spleen, fitted parameter A1 (bi-exponential fit): 0.12 % ID
Spleen, fitted parameter A2 (bi-exponential fit): 0.04 % ID
Stomach, biological half-life of A1 (bi-exponential fit): 0.46 h
Stomach, biological half-life of A2 (bi-exponential fit): 6.14 h
Stomach, fitted parameter A1 (bi-exponential fit): 0.15 % ID
Stomach, fitted parameter A2 (bi-exponential fit): 0.09 % ID
Kidneys, biological half-life of A2 [1]: 16.62 h
Renal cortex, biological half-life of A2 [1]: 19.19 h
WB retention, biological half-life of A1 [2]: 5.62 h
WB retention, fitted parameter A1 [2]: 100.00 % ID
